“Also recorded” adds a separate entry of the source. Read-outs that look alike come from different tables or passages of the source.
Assays:
[1] = system: mouse haloperidol model; assay: Mouse haloperidol model of catalepsy; format: in vivo; settings: control caffeine
Excerpt: See, e.g., East et al. (2010), Bioorg. Med Chem. Lett., August 15; 20(16):4901-5, Epub 2010 Jun. 25.

[2] = Body weight loss in chronically treated R6/2 mouse; format: in vivo; settings: R6/2 mice, 5 mg/kg or 10 mg/kg IP per day, chronic
Excerpt: More easily measured is body weight loss.
In the R6/2 mouse study described above the weight of the animals were monitored to determine if the LSD1 or LSD1/MAO-B dual inhibitor cause weight loss in chronically treated animals. […] .

[3] = system: R6/2 mice; assay: Two-choice swim test in R6/2 mouse; format: in vivo; settings: transgenic R6/2 mice
Excerpt: Eighty male and female R6/2 mice and 20 male and female wild-type littermate control mice (F1 generation) will be bred by Cerebricon at FELASA compliant National Animal Facility Center Kuopio by mating (F0 generation) WT males (C57BL6CBA F1 hybrid, JAX) with ovarian transferred (01) TG females (JAX). Breeder animals receive igloos instead of play tunnels, nylabone and cotton nestlets and use Purina diet 5008. Upon weaning, pups receive Purina diet 5001.
Sertraline will be made fresh daily by diluting to 1% TWEEN® 80 in ddH2°.
Two-Choice Swim Test: The two-choice swim test is performed at age week 9. The swim tank (dimensions: 70 cm×30 cm×30 cm) is filled with water (26±1° C.) no higher than 1 cm from the top of a hidden escape platform. The hidden cylindrical platform (diameter, 6.0 cm, height,˜9 cm) is placed either at right or left end of the tank. During acquisition of the task, each mouse is given six training trials per day to swim towards or away from the right end (counterbalanced across subjects) to escape onto the platform. […] A choice is recorded when a mouse moves towards one end and swims beyond 20 cm from the center. If the mouse fails to make a choice within about 15 minutes a “no choice” is recorded. […] In all trials, choice, latency and “no choice” are recorded.

[4] = system: R6/2 mice; assay: Longevity / survival study in R6/2 mouse; settings: for survival versus vehicle and sertraline treated animals: 10 mg/kg
Method: The solutions are made and stored according to instructions provided by the sponsor (storage conditions and expiration day of solution).
Body weight is measured starting at age of four weeks and two times per week on the same day (i.e., Monday and Thursday) until end of the study. For convenience this is done just prior to animals receiving doses for those days. Animals are monitored twice-a-day by laboratory personnel (8 am and 4 pm) for “survival.” It is most optimal to measure “true survival” that is when the mouse has no detectable heartbeat. Since IACUC restrictions prevent this then using a definable and quantifiable endpoint for “survival” need to be used (see section 2.7 humane end-points). […] For instance, body temperature changes can drop just before death but many R6/2 mice show spontaneous death without preceding body temperature changes. More easily measured is body weight loss. […] Again mice that die spontaneously may not show such acute body weight changes. For these alternative measures combining these “survival” data (body weight or temperature decrease) with “survival” of spontaneous death mice (age found dead in a cage) is suitable.

[5] = system: SH-SY5Y cells; assay: Western blot for dimethylated H3K4 in SH-SY5Y cells; format: cell-based
Excerpt: B-actin was used as a loading control.

[6] = system: Drosophila melanogaster expressing HD-Q120; assay: Eye (rhabdomere) degeneration in Huntington disease fly line B-8533; format: in vivo; settings: 1 μM and 5 μM
Excerpt: The eye of the fruit fly, Drosophila melanogaster, provides an ideal model system for studying neuronal survival. Each eye consists of approximately 800 units called ommatidia arranged in a regular pattern and the photoreceptors that compose each ommatidium exist in an ordered trapezoidal array. The presence and organization of these cells can be readily assessed using a technique called optical neutralization of the cornea (Franceschini and Kirschfeld, 1971).
This technique is being used in a screen for compounds that can rescue the neurodegenerative phenotype of a Drosophila model of Huntingtons disease (HD), fly line B-8533 (Jackson et al., 1998). This line contains a P-element construct inserted on the second chromosome, P{w+ gmr.HD-Q120)}. The construct contains a w+ visible eye-color marker, which enables confirmation of the presence of the insertion. […]
The now three- to ten-day-old flies are added to the vials (six to ten females and three males in each), incubated at 25° for seven to ten days. […] F1 eclosion-start date is noted and males and females are counted. […] Ommatidia are scored for number of visible rhabdomeres (0 to 7). […] Significance can be determined by the Mann-Whitney U-test or one-tailed student's T-test. […]

[7] = target: T1, Human recombinant monoamine oxidase MAO-A (Homo sapiens, UniProt P21397); assay: MAO-A inhibition assay (kynuramine fluorescence); format: biochemical
T1 construct: purchased Sigma Aldrich
T1 sequence (P21397 1-527): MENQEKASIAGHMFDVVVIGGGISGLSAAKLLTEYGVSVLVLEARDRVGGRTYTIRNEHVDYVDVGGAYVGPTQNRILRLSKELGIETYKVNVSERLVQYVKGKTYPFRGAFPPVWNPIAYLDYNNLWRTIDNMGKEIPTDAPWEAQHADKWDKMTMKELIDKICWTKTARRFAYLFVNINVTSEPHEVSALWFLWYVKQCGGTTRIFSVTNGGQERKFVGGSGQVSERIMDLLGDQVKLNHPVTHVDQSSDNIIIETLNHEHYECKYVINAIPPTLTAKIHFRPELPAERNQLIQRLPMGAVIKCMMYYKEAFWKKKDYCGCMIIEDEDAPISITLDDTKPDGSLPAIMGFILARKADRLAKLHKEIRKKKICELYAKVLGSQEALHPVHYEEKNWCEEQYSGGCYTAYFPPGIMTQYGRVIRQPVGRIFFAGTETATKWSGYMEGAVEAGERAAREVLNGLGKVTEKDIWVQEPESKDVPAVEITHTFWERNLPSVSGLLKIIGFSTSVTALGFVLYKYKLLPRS
Excerpt: Human recombinant monoamine oxidase proteins MAO-A and MAO-B were purchased from Sigma Aldrich. MAOs catalyze the oxidative deamination of primary, secondary and tertiary amines. In order to monitor MAO enzymatic activities and/or their inhibition rate by inhibitor(s) of interest, a fluorescent-based (inhibitor)-screening assay was set up. 3-(2-Aminophenyl)-3-oxopropanamine (kynuramine dihydrobromide, Sigma Aldrich), a non fluorescent compound was chosen as a substrate. Kynuramine is a non-specific substrate for both MAOs activities. While undergoing oxidative deamination by MAO activities, kynuramine is converted into 4-hydroxyquinoline (4-HQ), a resulting fluorescent product.
The monoamine oxidase activity was estimated by measuring the conversion of kynuramine into 4-hydroxyquinoline. Assays were conducted in 96-well black plates with clear bottom (Corning) in a final volume of 100 μL. The assay buffer was 100 mM HEPES, pH 7.5. Each experiment was performed in triplicate within the same experiment. […] The conversion of kynuramine to 4-hydroxyquinoline, was monitored by fluorescence (excitation at 320 nm, emission at 360 nm) using a microplate reader (Infinite 200, Tecan). Arbitrary units were used to measure levels of fluorescence produced in the absence and/or in the presence of inhibitor. […] The Ki (TC50) of each inhibitor was determined at Vmax/2.

NC(=O)CNC1CC1c1ccc(OCc2ccccc2)cc1 (stereo not shown) [Compound Dual-1]
rescue of toxin induced deficit (catalepsy) [1]: rescue the toxin induced deficit in a manner similar to or better than control compound caffeine or no treatment
body weight loss compared to transgenic animals treated with vehicle or sertraline [2]: caused no significant weight loss; also recorded: did not have substantially different weight losses
other parameters of two-choice swim test ([3]; 5 mg/kg ip): clear trend (NS)
performance in two-choice swim test (latency to find the platform) ([3]; 5 mg/kg ip once-a-day, age week 9, 5 mg/kg): significantly improved the performance; also recorded: improved response in the two-choice swim test
longevity (overall survival) ([4]; R6/2 mouse study): can increase the longevity
survival versus vehicle and sertraline treated animals ([4]; female R6/2 mice): survived longer
survival versus vehicle and sertraline treated animals ([4]; male and female R6/2 mice): survived longer
levels of dimethylated H3K4 (western blot) ([5]; 100 μM, one, two and three days): increases H3K4 methylation in cells in a time dependent manner; also recorded: increases levels of dimethylated H3K4 in cells in a time dependent manner
potency at increasing global dimethylated H3K4 levels as compared to tranylcypromine ([5]; Dual-1 100 μM vs parnate 250 μM): ten-fold or more potent

CN1CCN(C(=O)CNC2CC2c2ccc(OCc3ccccc3)cc2)CC1 (stereo not shown) [Compound Selective-1]
rhabdomere degeneration as compared to vehicle treated flies ([6]; day 2): reduced rhadomere degeneration
rescue of eye degeneration phenotype as compared to vehicle treated fly ([6]; day not stated): in a concentration dependent manner rescues the eye degeneration phenotype
IC50 [7]: > 1000 nM

CN1CCN(C(=O)CNC2CC2c2ccc(C3CC3)cc2)CC1 (stereo not shown) [Selective-2]
IC50 ([7]; read-out: MAO-A IC50): > 1000 nM
